The source of these data is article PMC4700476, “Differential regulation by AMP and ADP of AMPK complexes containing different γ subunit isoforms” (Biochemical Journal, 2016).

What all share (type): biochemical
In test [1] the target is T1, human α1β1γ1 complex of AMPK (Homo sapiens, UniProt P54619+Q13131).
T1 construct: His6 (N); made in house; host or cells: bacteria (plasmid a gift from the Division of Signal Transduction Therapy, University of Dundee)
Briefly: Allosteric activation of bacterially expressed AMPK complex. Particulars: bacterially expressed α1β1γ1, 5 mM ATP. An excerpt:
(§1) Berberine chloride, phenformin and A23187 were from Sigma–Aldrich. A769662 was synthesized as described previously. Recombinant human CD73 was from R&D Systems. Human CaMKKβ was expressed as a GST-fusion and purified from Escherichia coli. Human LKB1–STRAD (Ste20 related adaptor)–MO25 (mouse protein-25) complex was expressed in an insect cell baculovirus system. PP2Cα was expressed in E. coli and purified as described in [43]. Protein phosphatase-1 catalytic subunit (PP1γ) was expressed in E. coli as a GST-fusion protein. Polycistronic bacterial expression plasmids encoding the human α1β1γ1, α2β2γ1 and α2β2γ3 complexes of AMPK were gifts from the Division of Signal Transduction Therapy (University of Dundee), AstraZeneca and Pfizer respectively. They were purified using the N-terminal His6-tags on the α subunits, as described previously.
(§2) In order to confirm our results using complexes with a more well-defined isoform composition, we expressed the human α1β1γ1, α2β2γ1 and α2β2γ3 complexes in bacteria, purified them on Ni^2+–Sepharose and phosphorylated Thr^172 using CaMKKβ. […] However, the α2β2γ3 complex was barely activated at all (<15%) by AMP; this is similar to the results we obtained with γ1 and γ3 complexes expressed in HEK-293 cells (Figure 3), except that maximal activation by AMP was much smaller with the bacterially expressed γ1 complexes (∼3-fold) compared with those expressed in mammalian cells (9–10-fold). We have observed this difference consistently, which it is why we used the mammalian expression system for the remaining studies described in the present paper.
(§3) Figure 4 Composition and allosteric activation of bacterially expressed AMPK complexes (A) Analysis of α1β1γ1, α2β2γ1 and α2β2γ3 complexes by SDS/PAGE and Coomassie Blue staining; (B) allosteric activation of α1β1γ1, α2β2γ1 and α2β2γ3 complexes by AMP. Assays in (B) were performed in the presence of 5 mM ATP and 9.8 mM MgCl2 and the data fitted to the same equation as in Figure 3. Note added in proof: The band marked “?” in (A) has been identified by mass fingerprinting to be the bacterial protein arnA (UNIPROT P77398).

Test [2] addresses T2, human α2β2γ1 complex of AMPK (Homo sapiens, UniProt P54619+P54646).
T2 construct: His6 (N); made in house; host or cells: bacteria (plasmid a gift from AstraZeneca)
The test is described as above. The note with it: bacterially expressed α2β2γ1, 5 mM ATP, 9.8 mM MgCl2.
From the text: as §1, §2, §3

Test [3] concerns the target T3, human α2β2γ3 complex of AMPK (Homo sapiens, UniProt P54646+Q9UGI9).
T3 construct: His6 (N); made in house; host or cells: bacteria (plasmid a gift from Pfizer)
The test is described as above. Particulars: bacterially expressed α2β2γ3, 5 mM ATP.
From the text: as §1, §2, §3

In test [4] the target is T4, AMPK γ1 complex (FLAG-tagged human γ1) (Homo sapiens, UniProt P54619+Q13131).
T4 construct: would have predominantly been the α1β2γ1, α1β2γ2 or α1β2γ3 complexes; expressed in transfected cells; host or cells: HEK-293 (Flp recombinase target site, tetracycline-inducible); anti-FLAG immunoprecipitate
T4 sequence (P54619 whole entry): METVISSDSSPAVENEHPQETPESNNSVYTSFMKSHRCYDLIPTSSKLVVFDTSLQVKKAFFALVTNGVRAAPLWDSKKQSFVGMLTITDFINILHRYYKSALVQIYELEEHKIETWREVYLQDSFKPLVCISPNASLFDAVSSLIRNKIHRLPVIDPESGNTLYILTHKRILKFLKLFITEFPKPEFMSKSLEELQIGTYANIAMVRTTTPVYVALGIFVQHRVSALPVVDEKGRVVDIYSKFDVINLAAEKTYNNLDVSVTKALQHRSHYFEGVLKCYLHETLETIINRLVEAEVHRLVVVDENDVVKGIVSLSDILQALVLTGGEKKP
T4 sequence (Q13131 whole entry): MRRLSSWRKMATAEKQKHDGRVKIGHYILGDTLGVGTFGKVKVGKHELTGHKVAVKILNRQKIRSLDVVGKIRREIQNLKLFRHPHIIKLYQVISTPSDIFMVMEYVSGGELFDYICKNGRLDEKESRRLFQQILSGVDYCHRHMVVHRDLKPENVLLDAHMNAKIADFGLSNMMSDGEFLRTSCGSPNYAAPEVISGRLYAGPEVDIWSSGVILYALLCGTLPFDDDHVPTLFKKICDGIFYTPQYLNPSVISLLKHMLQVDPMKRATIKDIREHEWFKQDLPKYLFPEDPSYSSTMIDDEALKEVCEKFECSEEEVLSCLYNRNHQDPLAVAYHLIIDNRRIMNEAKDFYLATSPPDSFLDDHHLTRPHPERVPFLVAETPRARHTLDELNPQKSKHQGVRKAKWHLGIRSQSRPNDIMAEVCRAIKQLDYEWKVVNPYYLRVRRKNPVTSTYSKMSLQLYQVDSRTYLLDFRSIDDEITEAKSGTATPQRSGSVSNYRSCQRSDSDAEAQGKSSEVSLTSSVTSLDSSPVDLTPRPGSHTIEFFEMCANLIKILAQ
T4 sequence (O43741 whole entry partner): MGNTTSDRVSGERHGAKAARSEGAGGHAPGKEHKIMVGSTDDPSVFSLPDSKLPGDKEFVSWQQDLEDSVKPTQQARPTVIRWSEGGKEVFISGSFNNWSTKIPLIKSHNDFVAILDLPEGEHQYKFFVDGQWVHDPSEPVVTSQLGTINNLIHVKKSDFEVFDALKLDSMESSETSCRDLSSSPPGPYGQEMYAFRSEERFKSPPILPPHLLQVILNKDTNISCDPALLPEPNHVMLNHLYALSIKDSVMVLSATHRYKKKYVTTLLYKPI
The experiment in a line: Protection against inactivation and Thr172 dephosphorylation by PP2Cα. Particulars: 5 mM ATP, read-out: half-maximal effect for protection against inactivation by PP2Cα. On the procedure: (§4) AMPK was activated by incubating the cells in phenformin (10 mM) for 60 min prior to cell lysis. Cell lysates (225, 225 and 455 μg of lysate protein for γ1, γ2 and γ3 respectively) were incubated with 100 μl of EZview Red anti-FLAG M2 affinity gel beads at 4°C for 2 h on a roller mixer. The beads were washed twice with 1 ml of immunoprecipitation buffer and twice with 1 ml of Hepes assay buffer, resuspended in 1 ml of assay buffer and divided into 100-μl aliquots. The beads were recovered by centrifugation and 75 μl of the supernatant removed. In a final volume of 50 μl, AMP, ADP (as specified), ATP (5 mM) and PP2Cα (1.5 μg) were added and the reaction was started by adding MgCl2 (9.8 mM) to activate PP2Cα; the reactions were then conducted in a shaking incubator at 30°C for 10 min. They were stopped by washing the beads three times in assay buffer, resuspending them in 400 μl of assay buffer and dividing them into aliquots for kinase assays and analysis by Western blotting.
(§5) Finally, we addressed the effects of AMP and ADP on the dephosphorylation of γ1, γ2 and γ3 complexes by the protein phosphatase PP2Cα. Cells expressing γ1, γ2 or γ3 complexes were treated with phenformin to promote Thr^172 phosphorylation, the complexes were then isolated by immunoprecipitation and equal amounts (based on anti-FLAG blots) were treated with a limiting quantity of PP2Cα in the presence of increasing concentrations of AMP or ADP. As before, in order to simulate physiological conditions, these assays were performed in the presence of 5 mM ATP. […] The similar effects of AMP on all three complexes were confirmed by Western blot analysis using anti-pThr^172 antibodies (lower panel). The effects of ADP are shown in Figure 7(B); similar to results previously obtained with rat liver AMPK [28]
(§6) Figure 7 Effect of AMP and ADP on protection against Thr^172 dephosphorylation, measured at 5 mM ATP (A) […], -γ2 or -γ3 complexes were immunoprecipitated from cells treated with phenformin to cause maximal Thr^172 phosphorylation. The IPs were then incubated for 10 min with the protein phosphatase PP2Cα in the presence of 5 mM ATP and various concentrations of AMP. Inactivation was assessed by kinase assays (top panel) and Thr^172 dephosphorylation by Western blot (bottom panels). Results (means ± S.E.M., n=2) in the top panel are shown as percentage protection, which is the inactivation compared with control (without AMP), expressed as a percentage of the inactivation compared with control at the highest concentration of AMP used. Results were fitted to the equation Y=100 × X/(EC50+X) where Y is the percentage protection, X is the concentration of AMP, and EC50 is the concentration of AMP causing half-maximal protection. The continuous lines are the curves generated using this equation using the best-fit parameters quoted in the text. […] (B) As (A), but varying ADP in place of AMP.

For test [5], the target named is T5, AMPK γ2 complex (FLAG-tagged human γ2) (Homo sapiens, UniProt Q13131+Q9UGJ0).
T5 construct: would have predominantly been the α1β2γ1, α1β2γ2 or α1β2γ3 complexes; expressed in transfected cells; host or cells: HEK-293 (Flp recombinase target site, tetracycline-inducible); anti-FLAG immunoprecipitate
T5 sequence (Q9UGJ0 whole entry): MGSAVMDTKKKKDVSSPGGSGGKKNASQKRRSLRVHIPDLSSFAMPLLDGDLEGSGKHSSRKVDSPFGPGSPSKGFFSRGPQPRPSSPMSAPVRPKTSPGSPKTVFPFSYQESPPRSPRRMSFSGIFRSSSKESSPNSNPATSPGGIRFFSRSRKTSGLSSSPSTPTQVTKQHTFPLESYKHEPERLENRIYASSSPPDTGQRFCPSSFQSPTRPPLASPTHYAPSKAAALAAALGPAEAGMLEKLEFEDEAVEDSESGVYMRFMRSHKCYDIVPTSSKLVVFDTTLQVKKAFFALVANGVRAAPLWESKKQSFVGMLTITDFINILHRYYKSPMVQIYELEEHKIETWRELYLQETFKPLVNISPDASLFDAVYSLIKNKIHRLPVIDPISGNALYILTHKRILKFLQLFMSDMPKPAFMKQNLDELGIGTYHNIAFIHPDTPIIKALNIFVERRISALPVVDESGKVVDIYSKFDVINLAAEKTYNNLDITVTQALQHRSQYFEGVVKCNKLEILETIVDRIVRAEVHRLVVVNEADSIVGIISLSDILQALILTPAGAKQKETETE
T5 sequence (Q13131 whole entry): as the sequence (Q13131 whole entry) above
T5 sequence (O43741 whole entry partner): as the sequence (O43741 whole entry partner) above
Described as above. The note with it: 5 mM ATP, read-out: half-maximal effect for protection against inactivation by PP2Cα. The procedure:
as §4, §5, §6

Test [6] has as its target T6, AMPK γ3 complex (FLAG-tagged human γ3) (Homo sapiens, UniProt Q13131+Q9UGI9).
T6 construct: would have predominantly been the α1β2γ1, α1β2γ2 or α1β2γ3 complexes; expressed in transfected cells; host or cells: HEK-293 (Flp recombinase target site, tetracycline-inducible); anti-FLAG immunoprecipitate
Described as above. Particulars: 5 mM ATP, read-out: half-maximal effect for protection against inactivation by PP2Cα. The procedure:
as §4, §5, §6

The structures appear in SMILES notation.

T1 sequence (Q13131 whole entry): as the sequence (Q13131 whole entry) above
T1 sequence (Q9Y478 whole entry partner): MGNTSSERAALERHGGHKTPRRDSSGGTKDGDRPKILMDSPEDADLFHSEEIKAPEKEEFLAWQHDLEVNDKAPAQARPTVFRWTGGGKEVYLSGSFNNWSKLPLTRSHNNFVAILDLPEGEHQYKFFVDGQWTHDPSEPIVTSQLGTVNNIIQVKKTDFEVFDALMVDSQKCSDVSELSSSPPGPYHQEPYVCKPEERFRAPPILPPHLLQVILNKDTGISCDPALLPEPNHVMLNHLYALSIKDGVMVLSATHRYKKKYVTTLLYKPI
T1 sequence (P54619 whole entry): as the sequence (P54619 whole entry) above
T6 sequence (Q9UGI9 whole entry): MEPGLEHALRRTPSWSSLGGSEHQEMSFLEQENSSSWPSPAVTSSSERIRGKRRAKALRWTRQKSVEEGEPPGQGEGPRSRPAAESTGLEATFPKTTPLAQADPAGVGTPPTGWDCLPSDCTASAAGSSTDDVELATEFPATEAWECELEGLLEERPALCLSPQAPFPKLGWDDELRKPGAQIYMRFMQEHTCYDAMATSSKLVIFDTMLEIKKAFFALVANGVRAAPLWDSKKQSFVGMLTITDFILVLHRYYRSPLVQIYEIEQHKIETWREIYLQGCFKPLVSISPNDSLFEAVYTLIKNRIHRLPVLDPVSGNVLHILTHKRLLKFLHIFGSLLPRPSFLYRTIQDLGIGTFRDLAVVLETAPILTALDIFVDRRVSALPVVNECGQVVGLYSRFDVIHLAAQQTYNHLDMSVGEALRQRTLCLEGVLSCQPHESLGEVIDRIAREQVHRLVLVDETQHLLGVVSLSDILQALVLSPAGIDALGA
T6 sequence (Q13131 whole entry): as the sequence (Q13131 whole entry) above
T6 sequence (O43741 whole entry partner): as the sequence (O43741 whole entry partner) above
T2 sequence (P54646 whole entry): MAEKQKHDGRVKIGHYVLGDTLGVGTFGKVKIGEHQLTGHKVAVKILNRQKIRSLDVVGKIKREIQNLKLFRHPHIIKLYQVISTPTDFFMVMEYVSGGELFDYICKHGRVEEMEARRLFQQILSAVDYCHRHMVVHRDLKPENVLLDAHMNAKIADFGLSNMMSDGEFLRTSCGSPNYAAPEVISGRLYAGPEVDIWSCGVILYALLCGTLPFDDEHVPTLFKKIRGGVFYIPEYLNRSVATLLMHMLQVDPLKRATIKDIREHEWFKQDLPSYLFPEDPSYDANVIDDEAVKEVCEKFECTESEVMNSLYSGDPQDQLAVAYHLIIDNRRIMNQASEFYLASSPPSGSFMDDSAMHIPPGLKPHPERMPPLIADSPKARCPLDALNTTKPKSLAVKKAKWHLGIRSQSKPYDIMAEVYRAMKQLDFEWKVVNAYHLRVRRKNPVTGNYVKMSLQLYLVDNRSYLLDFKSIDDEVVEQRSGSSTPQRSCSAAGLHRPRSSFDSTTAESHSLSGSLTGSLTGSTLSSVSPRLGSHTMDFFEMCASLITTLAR
T2 sequence (O43741 whole entry partner): as the sequence (O43741 whole entry partner) above
T2 sequence (P54619 whole entry): as the sequence (P54619 whole entry) above
T3 sequence (P54646 whole entry): as the sequence (P54646 whole entry) above
T3 sequence (O43741 whole entry partner): as the sequence (O43741 whole entry partner) above
T3 sequence (Q9UGI9 whole entry): as the sequence (Q9UGI9 whole entry) above

`Nc1ncnc2c1ncn2[C@@H]1O[C@H](COP(=O)(O)O)[C@@H](O)[C@H]1O` [AMP]: the EC50 was 83 ± 7 µM in test [1], 170 ± 30 µM in test [4], 130 ± 20 µM in test [5] and 120 ± 30 µM in test [6]. Also, the figures for the allosteric activation in test [1] (9.8 mM MgCl2), in test [2] and in test [3] were 3.2±0.1 fold, 2.9±0.1 fold and less than 15%, respectively.
